{"source": "patent US7432380B2", "about": "“Crystalline form of Fluvastatin sodium” (Ciba Specialty Chemicals Corp., priority 2003, dated 2008)", "origin": "cited, not measured here", "settings": "relative air humidity of surrounding atmosphere; from WO-A-03/13512", "data": [{"molecule": "CC(C)n1c(/C=C/[C@H](O)C[C@H](O)CC(=O)[O-])c(-c2ccc(F)cc2)c2ccccc21.[Na+]", "note": "[Form F]", "values": [{"measurement": "air humidity of atmospheres in which the form is stable", "result": "up to 90%"}]}]}
